Source: patent US7674771B2, “Antimicrobial peptides and utilization of the same” (Toagosei Co., Ltd, priority 2003, dated 2010)
Read-outs that look alike come from different tables or passages of the source.

Assays:
[1] = tested on: Aspergillus niger IFO 6341; assay type: cell-based
Protocol: (§1) Antimicrobial activity against fungi (Aspergillus niger IFO 6341) of the antimicrobial peptides related to the present invention was tested according to a general antimycotic susceptibility test as follows.
More specifically, a slant or plate medium (“potato dextrose agar” medium manufactured by DIFCO was used typically) adhered with spores (conidia) was prepared in advance, and A. niger (IFO 6341; JIS test strain) were gathered from the medium by scratching the medium surface 4 to 5 times from bottom up with a 1 μL disposable loop and suspended in 25 mL of PBS (free of Mg, Ca) solution containing 0.05% of surfactant (Tween® 80). Thereafter, pipetting was performed using a measuring pipette or the like such that clusters of black spores disappeared completely. The spore concentration of the spore suspension prepared by such method was determined using a hemocytometer while the above-described surfactant containing PBS solution was being diluted accordingly, thereby deriving a spore suspension having a spore concentration of approximately 2.5×10^5 spores/mL. […]
Next, a test fungus suspension was prepared by adding, with respect to 10 part by mass of the above-described spore suspension, 2 parts by mass of Alamar Blue fluorescence reagent (product of Wako Pure Chemical Industries, Ltd.) and 8 parts by mass of RPMI1640 medium containing 0.165M of MOPS, which was prepared by dissolving 5.2 g of RPMI1640 (product of Irvine Scientific) and 1.0 g of NaHCO3 in 450 mL of sterile distilled water and thereafter adding 17.12 g of MOPS and stirring, and adjusting the pH value to 7.0 by adding NaOH, and then filling up to 500 mL by adding sterile distilled water. […]
Sixteen hours after the beginning of culturing, the plate was retrieve from the incubator, and the presence of generation (growth) of mycelia in each well (well that had already been fed exclusively by the above-described test drug) used for spore growth inhibition test was evaluated with a microscope. […]

[2] = tested on: Aspergillus niger IFO 6341; assay type: cell-based; remark: listed apart in the source
Protocol: as §1
More specifically, a slant or plate medium (“potato dextrose agar” medium manufactured by DIFCO was used typically) adhered with spores (conidia) was prepared in advance, and A. niger (IFO 6341; JIS test strain) were gathered from the medium by scratching the medium surface 4 to 5 times from bottom up with a 1 μL disposable loop and suspended in 25 mL of PBS (free of Mg, Ca) solution containing 0.05% of surfactant (Tween® 80). Thereafter, pipetting was performed using a measuring pipette or the like such that clusters of black spores disappeared completely. The spore concentration of the spore suspension prepared by such method was determined using a hemocytometer while the above-described surfactant containing PBS solution was being diluted accordingly, thereby deriving a spore suspension having a spore concentration of approximately 2.5×10^5 spores/mL.
At the same time, the above-described two polypeptides (samples 1, 3) and benzalkonium chloride serving as a comparison for antimycotic activity were dissolved in 10 mM of HEPES buffer (pH7.0) respectively to prepare stock solutions with a 2.0 mg/mL drug concentration. These were sequentially diluted to prepare various kinds of test drugs with drug (each polypeptide or benzalkonium chloride) concentrations of 400, 200, 100, 50, 25, 5 and 0.5 μg/mL.
A spore germination inhibition test and a spore growth inhibition test were performed using the above-prepared drugs and spore suspension as follows.
First, each of the above-described drugs was fed to the 96-well microplate at 40 μL a time for the spore germination inhibition test. The surplus drugs were stored in a refrigerator (4° C.) to be used for the spore growth inhibition test to be perform at a later date.
Next, a test fungus suspension was prepared by adding, with respect to 10 part by mass of the above-described spore suspension, 2 parts by mass of Alamar Blue fluorescence reagent (product of Wako Pure Chemical Industries, Ltd.) and 8 parts by mass of RPMI1640 medium containing 0.165M of MOPS, which was prepared by dissolving 5.2 g of RPMI1640 (product of Irvine Scientific) and 1.0 g of NaHCO3 in 450 mL of sterile distilled water and thereafter adding 17.12 g of MOPS and stirring, and adjusting the pH value to 7.0 by adding NaOH, and then filling up to 500 mL by adding sterile distilled water. Then, the fungus suspension was fed at 160 μL a time to the wells in which the above-described drugs were added. In addition, empty wells in which no drug was added were also fed at 160 μL a time for spore growth inhibition test. After feeding, it was cultured under a humid environment for 16 hours in an incubator at 30° C.
Twenty-four hours and 48 hours after the beginning of culturing, the colour of the mediums in the wells used for spore germination inhibition test and the wells for spore growth inhibition test were observed. Here, those in which the Alamar Blue included within the medium remain blue (oxidized form) were evaluated as positive of antimicrobial activity positive, and those that are pink (reduced form) were evaluated as negative of antimicrobial activity. Moreover, the smallest drug concentration recognized as oxidized form (blue color) was served as MIC (minimum growth inhibitory concentration) in the spore germination inhibition test and the spore growth inhibition test related to the present example.

[3] = tested on: S. aureus; assay type: cell-based, Staphylococcus aureus
Protocol: (§2) First, a drug (synthesized polypeptide) solution having a concentration of 40 times of the highest test concentration was prepared using sterile distilled water, and liquid-bouillon mediums (more specifically, “Mueller Hinton Broth” manufactured by DIFCO) including cation and having drug concentrations of 100, 50, 25, 12.5, 6.3, 3.1, 1.6 and 0.8 μM were respectively produced. The cation included was prepared as follows: dissolving 3.68 g of CaCl2.2H2O in 100 mL of purified water (10 mg.Ca^2+/mL), and thereafter adding 500 μL thereof into 100 mL of Mueller Hinton Broth; and dissolving 8.36 g of MgCl2.6H2O in 100 mL of purified water (10 mg.Mg^2+/mL), and thereafter adding 250 μL thereof into 100 mL of Mueller Hinton Broth. Thereafter, the produced liquid-bouillon mediums including the drug of each concentration were then fed to the 96-well microplate at […] a time.
(§3) At the same time, test bacteria cultured for 18 hours at 37° C. on an agar plate (“Muller Hinton Agar” manufactured by DIFCO) were gathered by scratching with a loop, and then suspended in a sterilized physiological saline. Bacterial suspension 5 μL prepared at an equivalent of 2×10^7 cells/mL was respectively inoculated (number of bacteria to be tested: approximately 1×10^6 cells/mL) onto the drug solution and fed to each well of the above-described microplate. After inoculation, the microplate was then incubated in an incubator at 37° C., and the presence of bacteria was evaluated based on the turbidity 24 hours later. The minimum drug concentration (polypeptide concentration), in which an increased in turbidity caused by bacteria was not detected at the time of measurement, was defined as MIC (minimum inhibitory concentration) (unit: μM) in the present embodiment. In addition, MIC were determined in the same manner using polymyxin B as a comparison.
Next, the antimicrobial activities (MIC) against gram-positive bacteria (S. aureus) in the presence of serum were tested with the same method as Example 2. […] Thereafter, the produced liquid-bouillon mediums including the drug and the serum of each concentration were then fed to the 96-well microplate at […] a time, and MIC were determined by the method same as Example 2. Sample X in the table is a mixture of sample 1 and sample 16 based on a mass ratio of 1:1. “-” in the table indicate “untested”.

[4] = tested on: Staphylococcus aureus IFO 12732; assay type: cell-based; details: IFO 12732, 24 h
Protocol: (§4) Regarding the antimicrobial peptide (samples 1 to 20) related to the present invention, the antimicrobial activities (minimum inhibitory concentration: MIC) with respect to gram-negative bacteria (Escherichia coli IFO 3972) and gram-positive bacteria (Staphylococcus aureus IFO 12732) were determined by a liquid medium dilution technique using a 96-well microplate.
as §2, §3

[5] = tested on: Escherichia coli IFO 3972; assay: MIC by liquid medium dilution technique, 96-well microplate, gram-negative bacteria; assay type: cell-based; details: for Antimicrobial Activities (MIC) E. coli: IFO 3972, 24 h
Protocol: as §4, §2, §3

[6] = tested on: methicillin-resistant Staphylococcus aureus (MRSA, No. 164 strain); assay: Treatment effect test on mice infected by MRSA, bacterial count in intestine content; assay type: in vivo; details: mice, oral 100 mg/kg
Protocol: The following test was performed to evaluate the treatment effect on mice infected by bacterial (MRSA) of sample 22 obtained by synthesis.
Mice (ICR, SLC, male, 5 weeks old) were prepared by rearing on drinking water mixed with amphotericin B (AMPH: product of Bristol-Myers Company) and tetracycline, such that their concentrations are 10 μg/mL (AMPH) and 2000 μg/mL (tetracycline) respectively, a week before the start of the test, and the immunity of the mice was weaken by administrating 200 mg/kg amount of cyclophosphamide into the abdominal for 3 days from the fourth day prior to the test.
Bacterial suspension prepared by suspending methicillin-resistant Staphylococcus aureus (MRSA, No. 164 strain) in 10% (w/v) of mucin solution was orally administered to the mice at a bacterial administration quantity of 10^8 cells/mouse, thereby eliciting MRSA infection.
One hour after the bacterial inoculation, antimicrobial agent prepared by suspending the test material (therefore polypeptide of sample 22) in 10% of gum arabic solution was orally administered. The administered quantity of suspension was 100 mg/kg. A total of 5 test groups, with each test group containing 5 test mice, were tested. For comparison, antimicrobial agent prepared by suspending vancomycin in 10% of gum arabic solution was orally administered to the test mice under the same conditions.
After the drug administration, test mice were slaughtered approximately 24 hours later, and the contents in the intestine extracted, and the bacterial count of MRSA examined. More specifically, 1.8 mL of physiological saline was added to and mixed with approximately 0.2 g of intestine contents. A fixed quantity of such mixture was smeared on mannitol agar medium (product of Nissui Pharmaceutical Co., Ltd) including gentamicin (GM) with a concentration of […], and cultured for 3 days at 37° C.

Compound | MIC against A. niger, spore growth inhibition test after 24 hours ([1]; IFO 6341, 24 h) | MIC against A. niger, spore germination inhibition test after 24 hours ([2]; IFO 6341, 24 h) | MIC against A. niger, spore germination inhibition test after 48 hours ([2]; IFO 6341, 48 h) | Antimicrobial Activities (MIC) against S. aureus, horse serum concentration 10% [3] | Antimicrobial Activities (MIC) S. aureus [4] | Antimicrobial Activities (MIC) E. coli [5] | other results
benzalkonium chloride [reference compound] | – | – | – | – | – | – | MIC against A. niger, spore growth inhibition test after 24 hours ([1]; after 24 hours): 25 µg/mL; MIC against A. niger, spore germination inhibition test after 24 hours ([2]; after 24 hours): 25 µg/mL; MIC against A. niger, spore germination inhibition test after 48 hours ([2]; after 48 hours): 25 µg/mL
H-RIRKKLRLMWWML-NH2 [sample 3, RIRKKLRLMWWML-CONH2] | 100 µg/mL | 100 µg/mL | 100 µg/mL | 3.1 µM | 3.1 µM | 6.3 µM | –
H-RKKKRKVLMWWMLR-NH2 [sample 1, RKKKRKVLMWWMLR-CONH2] | 100 µg/mL | 50 µg/mL | 50 µg/mL | 3.1 µM | 3.1 µM | 6.3 µM | Antimicrobial Activities (MIC) against S. aureus, horse serum concentration 20% [3]: 3.1 µM; Antimicrobial Activities (MIC) against S. aureus, horse serum concentration 50% [3]: 3.1 µM; antimicrobial activity against E. coli, in words ([5]; comparison stated in text on Table 2): higher antimicrobial activities
CN[C@H](CC(C)C)C(=O)N[C@H]1C(=O)N[C@@H](CC(N)=O)C(=O)N[C@H]2C(=O)N[C@H]3C(=O)N[C@H](C(=O)N[C@H](C(=O)O)c4cc(O)cc(O)c4-c4cc3ccc4O)[C@H](O)c3ccc(c(Cl)c3)Oc3cc2cc(c3O[C@@H]2O[C@H](CO)[C@@H](O)[C@H](O)[C@H]2O[C@H]2C[C@](C)(N)[C@H](O)[C@H](C)O2)Oc2ccc(cc2Cl)[C@H]1O [Vancomycin, vancomycin, reference compound] | – | – | – | – | – | – | MRSA bacterial quantity in intestine content, administered group 1 ([6]; approximately 24 hours after administration, group 1): 8 ×10^3 cells/g; MRSA bacterial quantity in intestine content, administered group 2 ([6]; approximately 24 hours after administration, group 2): 10 ×10^3 cells/g; MRSA bacterial quantity in intestine content, administered group 3 ([6]; approximately 24 hours after administration, group 3): 43 ×10^3 cells/g; MRSA bacterial quantity in intestine content, administered group 4 ([6]; approximately 24 hours after administration, group 4): 22 ×10^3 cells/g; MRSA bacterial quantity in intestine content, administered group 5 ([6]; approximately 24 hours after administration, group 5): 26 ×10^3 cells/g; MRSA bacterial quantity in intestine content, Average ([6]; average of groups 1-5): 22 ×10^3 cells/g
